Laboratory results: US11420958B2, “Aryl and heteroaryl substituted indole compounds” (BRISTOL-MYERS SQUIBB COMPANY, priority 2017, dated 2022)

How the values were obtained:
Type in all cases: cell-based
human TLR7 = human TLR7 (Homo sapiens (Human), UniProt Q9NYK1); test: TLR7 inhibition reporter assay (HEK-Blue, SEAP); conditions: HEK-Blue cells overexpressing human TLR7, gardiquimod 7.5 μM stimulation
In short: (§1)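 SEAP read-out via detection medium after 22 h at 37 °C, 5% CO2; percent inhibition relative to agonist-plus-DMSO and known-inhibitor wells. Agonists: TLR7 gardiquimod 7.5 μM, TLR8 R848 15.9 μM, TLR9 ODN2006 5 nM (final). Compound range 0.05 nM–50 μM, 30 min pre-treatment.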

human TLR8 = human TLR8 (Homo sapiens (Human), UniProt Q9NR97); test: TLR8 inhibition reporter assay (HEK-Blue, SEAP); conditions: HEK-Blue cells overexpressing human TLR8, R848 15.9 μM stimulation
human TLR8, sequence (Q9NR97 27-1041): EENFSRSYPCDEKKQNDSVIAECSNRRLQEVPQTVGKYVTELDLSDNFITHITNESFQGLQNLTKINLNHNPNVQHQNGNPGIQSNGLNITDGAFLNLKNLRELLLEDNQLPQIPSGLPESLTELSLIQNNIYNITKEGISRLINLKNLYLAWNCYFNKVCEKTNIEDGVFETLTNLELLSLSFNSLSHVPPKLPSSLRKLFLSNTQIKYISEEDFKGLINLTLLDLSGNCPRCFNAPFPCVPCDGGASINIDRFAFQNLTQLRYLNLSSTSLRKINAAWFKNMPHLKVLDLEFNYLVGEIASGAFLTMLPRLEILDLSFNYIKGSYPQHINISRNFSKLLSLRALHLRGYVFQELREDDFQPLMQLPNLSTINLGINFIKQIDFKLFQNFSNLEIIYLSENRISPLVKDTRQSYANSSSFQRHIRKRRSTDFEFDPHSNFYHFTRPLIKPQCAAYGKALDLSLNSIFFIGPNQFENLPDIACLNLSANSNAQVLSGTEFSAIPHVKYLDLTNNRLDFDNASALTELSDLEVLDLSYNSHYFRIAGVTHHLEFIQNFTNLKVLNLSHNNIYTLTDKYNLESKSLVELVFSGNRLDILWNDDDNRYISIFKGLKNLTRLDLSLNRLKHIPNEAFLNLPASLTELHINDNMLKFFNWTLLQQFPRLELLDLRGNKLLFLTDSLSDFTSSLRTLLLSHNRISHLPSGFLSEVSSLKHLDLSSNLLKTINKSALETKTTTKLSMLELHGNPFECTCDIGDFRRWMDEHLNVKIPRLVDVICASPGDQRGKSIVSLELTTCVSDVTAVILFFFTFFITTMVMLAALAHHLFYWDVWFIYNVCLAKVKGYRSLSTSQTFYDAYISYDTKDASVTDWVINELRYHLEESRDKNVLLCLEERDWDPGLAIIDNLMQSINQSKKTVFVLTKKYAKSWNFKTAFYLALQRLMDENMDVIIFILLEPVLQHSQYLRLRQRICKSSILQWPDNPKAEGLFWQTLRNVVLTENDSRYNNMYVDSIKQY
In short: as §1

human TLR9 = human TLR9 (Homo sapiens (Human), UniProt Q9NR96); test: TLR9 inhibition reporter assay (HEK-Blue, SEAP); conditions: HEK-Blue cells overexpressing human TLR9, ODN2006 5 nM stimulation
human TLR9, sequence (Q9NR96 26-1032): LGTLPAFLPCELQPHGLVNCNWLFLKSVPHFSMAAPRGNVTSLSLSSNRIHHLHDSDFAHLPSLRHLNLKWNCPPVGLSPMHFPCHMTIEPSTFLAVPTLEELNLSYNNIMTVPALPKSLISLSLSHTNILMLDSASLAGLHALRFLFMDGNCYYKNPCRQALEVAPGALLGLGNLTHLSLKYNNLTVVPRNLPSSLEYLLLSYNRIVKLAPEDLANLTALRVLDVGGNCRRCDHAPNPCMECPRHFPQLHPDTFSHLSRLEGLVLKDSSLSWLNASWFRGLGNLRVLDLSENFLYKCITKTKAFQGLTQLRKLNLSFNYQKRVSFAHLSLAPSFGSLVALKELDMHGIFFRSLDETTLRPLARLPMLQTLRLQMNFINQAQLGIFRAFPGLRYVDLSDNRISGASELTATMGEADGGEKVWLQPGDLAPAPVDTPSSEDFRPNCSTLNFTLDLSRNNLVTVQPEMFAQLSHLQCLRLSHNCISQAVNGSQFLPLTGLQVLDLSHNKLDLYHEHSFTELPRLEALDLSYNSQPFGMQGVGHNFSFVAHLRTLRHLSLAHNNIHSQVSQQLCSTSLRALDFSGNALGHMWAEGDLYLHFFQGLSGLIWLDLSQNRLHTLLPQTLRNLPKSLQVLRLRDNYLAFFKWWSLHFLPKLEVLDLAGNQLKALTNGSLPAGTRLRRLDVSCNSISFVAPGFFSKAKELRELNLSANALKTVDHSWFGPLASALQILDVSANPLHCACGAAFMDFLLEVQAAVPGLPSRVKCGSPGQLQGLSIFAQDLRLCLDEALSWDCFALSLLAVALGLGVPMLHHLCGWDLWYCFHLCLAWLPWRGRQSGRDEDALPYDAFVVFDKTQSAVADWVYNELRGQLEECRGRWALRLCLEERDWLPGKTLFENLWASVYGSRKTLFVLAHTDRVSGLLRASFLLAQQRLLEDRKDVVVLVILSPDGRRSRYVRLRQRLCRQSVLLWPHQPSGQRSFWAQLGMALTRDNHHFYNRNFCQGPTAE
In short: as §1

human TLR7, sequence (Q9NYK1 27-1049): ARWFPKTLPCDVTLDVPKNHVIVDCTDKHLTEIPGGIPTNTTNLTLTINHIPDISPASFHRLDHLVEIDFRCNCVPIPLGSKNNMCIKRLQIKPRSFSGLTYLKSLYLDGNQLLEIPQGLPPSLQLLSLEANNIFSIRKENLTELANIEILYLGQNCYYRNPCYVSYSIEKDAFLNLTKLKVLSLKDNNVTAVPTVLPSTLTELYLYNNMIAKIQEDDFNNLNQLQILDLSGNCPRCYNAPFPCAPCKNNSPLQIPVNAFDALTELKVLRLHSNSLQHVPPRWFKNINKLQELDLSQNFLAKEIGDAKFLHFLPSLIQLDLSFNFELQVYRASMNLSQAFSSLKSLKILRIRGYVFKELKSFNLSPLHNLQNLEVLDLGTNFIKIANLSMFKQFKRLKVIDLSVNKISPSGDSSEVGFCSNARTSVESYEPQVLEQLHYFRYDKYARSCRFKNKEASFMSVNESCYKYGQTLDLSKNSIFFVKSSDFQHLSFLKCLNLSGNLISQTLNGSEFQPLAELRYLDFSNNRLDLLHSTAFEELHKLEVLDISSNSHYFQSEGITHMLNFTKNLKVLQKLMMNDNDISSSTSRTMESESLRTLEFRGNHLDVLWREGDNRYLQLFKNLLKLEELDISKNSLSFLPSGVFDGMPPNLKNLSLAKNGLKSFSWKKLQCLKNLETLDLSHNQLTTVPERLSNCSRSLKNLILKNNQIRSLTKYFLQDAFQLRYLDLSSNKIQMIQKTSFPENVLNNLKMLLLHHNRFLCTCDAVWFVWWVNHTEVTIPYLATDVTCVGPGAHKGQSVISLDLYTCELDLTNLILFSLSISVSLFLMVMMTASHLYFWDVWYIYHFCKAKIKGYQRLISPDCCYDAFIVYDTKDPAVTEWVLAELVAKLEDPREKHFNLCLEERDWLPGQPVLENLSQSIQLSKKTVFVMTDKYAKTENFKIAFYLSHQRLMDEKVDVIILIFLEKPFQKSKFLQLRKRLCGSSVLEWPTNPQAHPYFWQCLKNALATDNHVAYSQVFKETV

| Structure (SMILES) | IC50 (human TLR7) | IC50 (human TLR8) | IC50 (human TLR9) |
| --- | --- | --- | --- |
| CC(C)c1c(-c2ccnc3[nH]ncc23)[nH]c2ccc(-c3nnc(CNC4CC4)o3)cc12 [Example 148, N-((5-(3-isopropyl-2-(1H-pyrazolo[3,4-b]pyridin-4-yl)-1H-indol-5-yl)-1,3,4-oxadiazol-2-yl)methyl)cyclopropanamine] | 0.945 µM | 0.037 µM | > 50 µM |
| COc1ccc(-c2[nH]c3ccc(-c4nnc(C5CNC5)o4)cc3c2C(C)C)cc1OC [Example 53, 2-(azetidin-3-yl)-5-(2-(3,4-dimethoxyphenyl)-3-isopropyl-1H-indol-5-yl)-1,3,4-oxadiazole] | 0.381 µM | 0.078 µM | 3.01 µM |
| Cc1cc(-c2[nH]c3ccc(-c4nc(C(=O)NCC5CNC5)co4)cc3c2C(C)C)cc(C)n1 [Example 288, N-(azetidin-3-ylmethyl)-2-(2-(2,6-dimethylpyridin-4-yl)-3-isopropyl-1H-indol-5-yl)oxazole-4-carboxamide] | 0.069 µM | 0.08 µM | 0.73 µM |
| COc1ccc(-c2[nH]c3ccc(-c4ccc(-c5cccc(CN6CCN(C)CC6)c5)cc4)cc3c2C(C)C)cc1OC [Example 373, 2-(3,4-dimethoxyphenyl)-3-isopropyl-5-(3′-((4-methylpiperazin-1-yl)methyl)-[1,1′-biphenyl]-4-yl)-1H-indole] | 1.86 µM | 20.1 µM | 4.36 µM |
| Cc1cc(-c2[nH]c3ccc(-c4nnc(C5CCCN(C(C)C)C5)[nH]4)cc3c2C(C)C)ccn1 (stereo not drawn) [Example 188, 3-isopropyl-5-(5-(1-isopropylpiperidin-3-yl)-4H-1,2,4-triazol-3-yl)-2-(2-methylpyridin-4-yl)-1H-indole] | 0.028 µM | 0.003 µM | 0.328 µM |
| COc1ccc(-c2[nH]c3ccc(-c4ccc(C5=CCN(C6CCN(CC(C)C)CC6)CC5)cc4)cc3c2C)cc1OC [Example 375, 2-(3,4-dimethoxyphenyl)-5-(4-(1-(1-isobutylpiperidin-4-yl)-1,2,3,6-tetrahydropyridin-4-yl)phenyl)-3-methyl-1H-indole] | > 50 µM | 12.4 µM | 0.291 µM |
| COc1ccc(-c2[nH]c3ccc(-c4nnc(CCN(C)C)o4)cc3c2C(C)C)cc1OC [Example 43, 2-(5-(2-(3,4-dimethoxyphenyl)-3-isopropyl-1H-indol-5-yl)-1,3,4-oxadiazol-2-yl)-N,N-dimethylethan-1-amine] | 0.04 µM | 0.002 µM | 1.46 µM |
| Cc1cc(-c2[nH]c3ccc(-c4nnc(Cc5cccnc5)o4)cc3c2C(C)C)ccn1 [Example 74, 2-(3-isopropyl-2-(2-methylpyridin-4-yl)-1H-indol-5-yl)-5-(pyridin-3-ylmethyl)-1,3,4-oxadiazole] | 0.132 µM | 0.021 µM | 15.8 µM |
| COc1ccc(-c2[nH]c3ccc(-c4ccc(CN5CCOCC5)cc4)cc3c2C(C)C)cc1OC [Example 413, 4-(4-(2-(3,4-dimethoxyphenyl)-3-isopropyl-1H-indol-5-yl)benzyl)morpholine] | 0.44 µM | 0.038 µM | > 50 µM |
| COc1ccc(-c2[nH]c3ccc(-c4ccc5c(c4)CCNC5)cc3c2C(C)C)cc1OC [Example 136, 6-(2-(3,4-dimethoxyphenyl)-3-isopropyl-1H-indol-5-yl)-1,2,3,4-tetrahydroisoquinoline] | 0.057 µM | 0.038 µM | 6.88 µM |
| Cc1cc(-c2[nH]c3ccc(-c4nnc(C5CCCN(C)C5)o4)cc3c2C(C)C)ccn1 (stereo not drawn) [Example 169, 2-(3-isopropyl-2-(2-methylpyridin-4-yl)-1H-indol-5-yl)-5-(1-methylpiperidin-3-yl)-1,3,4-oxadiazole] | 0.027 µM | 0.0018 µM | 0.564 µM |
| COc1ccc(-c2[nH]c3ccc(-c4nnc(C5CCN(CC(=O)N(C)C)CC5)[nH]4)cc3c2C(C)C)cc1OC [Example 129, 2-(4-(5-(2-(3,4-dimethoxyphenyl)-3-isopropyl-1H-indol-5-yl)-4H-1,2,4-triazol-3-yl)piperidin-1-yl)-N,N-dimethylacetamide] | 0.06 µM | 0.014 µM | 3.46 µM |
| Cc1cc(-c2[nH]c3ccc(-c4nnc([C@H]5CSCN5)o4)cc3c2C(C)C)ccn1 [Example 82, (S)-2-(3-isopropyl-2-(2-methylpyridin-4-yl)-1H-indol-5-yl)-5-(thiazolidin-4-yl)-1,3,4-oxadiazole] | 0.596 µM | 0.096 µM | > 50 µM |
| Cc1cc(-c2[nH]c3ccc(-c4cc5c(s4)CN(C)CC5)cc3c2C(C)C)ccn1 [Example 251, 2-(3-isopropyl-2-(2-methylpyridin-4-yl)-1H-indol-5-yl)-6-methyl-4,5,6,7-tetrahydrothieno[2,3-c]pyridine] | 0.035 µM | 0.0014 µM | 0.484 µM |
| Cc1cc(-c2[nH]c3ccc(-c4nnc([C@H]5Cc6ccccc6CN5)o4)cc3c2C(C)C)ccn1 [Example 72, (R)-2-(3-isopropyl-2-(2-methylpyridin-4-yl)-1H-indol-5-yl)-5-(1,2,3,4-tetrahydroisoquinolin-3-yl)-1,3,4-oxadiazole] | 0.799 µM | 0.045 µM | 1.87 µM |
| CNC(=O)CN1CCC(c2nnc(-c3ccc4[nH]c(-c5ccc(OC)c(OC)c5)c(C(C)C)c4c3)o2)CC1 [Example 23, 2-(4-(5-(2-(3,4-dimethoxyphenyl)-3-isopropyl-1H-indol-5-yl)-1,3,4-oxadiazol-2-yl)piperidin-1-yl)-N-methylacetamide] | 0.207 µM | 0.043 µM | 6.1 µM |
| CC(C)c1c(-c2ccnc3[nH]ncc23)[nH]c2ccc(-c3cc(N4CCC(N)CC4)ncn3)cc12 [Example 208, 1-(6-(3-isopropyl-2-(1H-pyrazolo[3,4-b]pyridin-4-yl)-1H-indol-5-yl)pyrimidin-4-yl)piperidin-4-amine] | 0.139 µM | 0.0093 µM | 1.22 µM |
| Cc1cc(-c2[nH]c3ccc(-c4nnc(C[C@H]5CCCN5)o4)cc3c2C(C)C)ccn1 [Example 145, (R)-2-(3-isopropyl-2-(2-methylpyridin-4-yl)-1H-indol-5-yl)-5-(pyrrolidin-2-ylmethyl)-1,3,4-oxadiazole] | 0.034 µM | 0.001 µM | 0.633 µM |
| Cc1cc(-c2[nH]c3ccc(-c4nnc(CCCN(C)C)o4)cc3c2C(C)C)cc(C)n1 [Example 271, 3-(5-(2-(2,6-dimethylpyridin-4-yl)-3-isopropyl-1H-indol-5-yl)-1,3,4-oxadiazol-2-yl)-N,N-dimethylpropan-1-amine] | 0.0063 µM | 0.0019 µM | 0.281 µM |
| CC(C)c1c(-c2ccnc3[nH]ncc23)[nH]c2ccc(-c3noc(C[C@@H]4CCCN4)n3)cc12 [Example 439, (S)-3-(3-isopropyl-2-(1H-pyrazolo[3,4-b]pyridin-4-yl)-1H-indol-5-yl)-5-(pyrrolidin-2-ylmethyl)-1,2,4-oxadiazole] | 0.134 µM | 0.0033 µM | 2.14 µM |
| COc1ccc(-c2[nH]c3ccc(-c4ccc(N5CCNCC5)nc4)cc3c2C(C)C)cc1OC [Example 417, 2-(3,4-dimethoxyphenyl)-3-isopropyl-5-(6-(piperazin-1-yl)pyridin-3-yl)-1H-indole] | 0.049 µM | 0.0068 µM | 1.22 µM |
| COc1ccc(-c2[nH]c3ccc(-c4nnc(C5CCNCC5)[nH]4)cc3c2C(C)C)cc1OC [Example 124, 2-(3,4-dimethoxyphenyl)-3-isopropyl-5-(5-(piperidin-4-yl)-4H-1,2,4-triazol-3-yl)-1H-indole] | 0.182 µM | 0.108 µM | 9.2 µM |
| CC(C)c1c(-c2ccnc3[nH]ncc23)[nH]c2ccc(-c3nc(C(=O)NCCN(C)C)co3)cc12 [Example 234, N-(2-(dimethylamino)ethyl)-2-(3-isopropyl-2-(1H-pyrazolo[3,4-b]pyridin-4-yl)-1H-indol-5-yl)oxazole-4-carboxamide] | 0.229 µM | 0.0045 µM | 0.366 µM |
| Cc1cc(-c2[nH]c3ccc(-c4nnc(C5CCN(CC(=O)N(C)C)CC5)o4)cc3c2C(C)C)ccn1 [Example 65, 2-(4-(5-(3-isopropyl-2-(2-methylpyridin-4-yl)-1H-indol-5-yl)-1,3,4-oxadiazol-2-yl)piperidin-1-yl)-N,N-dimethylacetamide] | 0.097 µM | 0.0029 µM | 2 µM |
| Cc1cc(-c2[nH]c3ccc(-c4nnc(C5CCCN(C)C5)o4)cc3c2C(C)C)ccn1 (stereo not drawn) [Example 159, 2-(3-isopropyl-2-(2-methylpyridin-4-yl)-1H-indol-5-yl)-5-(1-methylpiperidin-3-yl)-1,3,4-oxadiazole] | 0.024 µM | 0.0018 µM | 1.23 µM |
| CCc1c(-c2ccc(OC)c(OC)c2)[nH]c2ccc(-c3noc(C4CCN(Cc5ccccc5)C4)n3)cc12 (stereo not drawn) [Example 443, 5-(1-benzylpyrrolidin-3-yl)-3-(2-(3,4-dimethoxyphenyl)-3-ethyl-1H-indol-5-yl)-1,2,4-oxadiazole] | 3.28 µM | 0.74 µM | 10.3 µM |
| CC(C)c1c(-c2ccnc3[nH]ncc23)[nH]c2ccc(-c3nc(C(=O)N4CCCN(C)CC4)co3)cc12 [Example 233, (2-(3-isopropyl-2-(1H-pyrazolo[3,4-b]pyridin-4-yl)-1H-indol-5-yl)oxazol-4-yl)(4-methyl-1,4-diazepan-1-yl)methanone] | 0.195 µM | 0.0025 µM | 2.08 µM |
| COc1ccc(-c2[nH]c3ccc(-c4ccc(NC5CCCNC5)cc4)cc3c2C(C)C)cc1OC (stereo not drawn) [Example 402, N-(4-(2-(3,4-dimethoxyphenyl)-3-isopropyl-1H-indol-5-yl)phenyl)piperidin-3-amine] | 0.2 µM | 0.021 µM | 2.32 µM |
